Assay results as given in patent publication US11262349B2, “Multiplexed immune cell assays on a micropillar/microwell chip platform” (Cleveland State University, priority 2017, dated 2022).

Key:
[1] = tested on: IL-6 production by RAW 264.7 cells; experiment: Cytokine secretion (IL-6) by immune cells on micropillar/microwell chip, 32-plex mouse cytokine array; assay type: cell-based; details: glycopolymers at 1250 μg/mL, LPS at 10 μg/mL, 24 hours, cell supernatant (FIG. 16B)
Description: (§1) FIGS. 9 and 16A-D are discussed in this example.
(§2) The micropillars on a micropillar chip were coated with 0.01% PMA-OD. Then 16.6 mM BaCl2/0.0033% PLL was printed on the micropillars using a microarray spotter.
(§3) An immune-cell suspension was prepared using RAW 264.7 cells, 0.75% alginate and 0.5 mg/mL Matrigel and then printed onto the coated micropillars. 60 nL spots of the immune-cell suspension were printed onto a micropillar chip with dried PLL-BaCl2 at a density of 3×10^6 cells/mL. After 2 minutes of alginate gelation and 24-hour incubation with a microwell chip containing 950 nL of cell growth media, the micropillar chip containing immune cells was sandwiched with a new microwell chip containing 950 nL of glycopolymers (polyacrylamide, N-glucosyl polymer, N-galactosyl polymer, N-mannosyl polymer, N-GlcNAc polymer, N-lactosyl polymer, N-α2,3 sialolactosyl polymer, and Nα2,6-sialolactosyl polymer) at 1250 μg/mL and LPS at 10 μg/mL, and incubated at 37° C. and 5% CO2 for 24 hours.
(§4) Separately, immune cells were cultured in 96-well plates in growth media and 10 μg/mL LPS for 24 hours as negative and positive controls for 2D monolayer culture.
(§5) The cell supernatants for all conditions were collected from the microwell chip and the 96-well plate, centrifuged, and analyzed for 32-plex mouse cytokine array measurements. […]

[2] = tested on: TNF-α production by RAW 264.7 cells; experiment: Cytokine secretion (TNF-α) by immune cells on micropillar/microwell chip, 32-plex mouse cytokine array; assay type: cell-based; details: glycopolymers at 1250 μg/mL, LPS at 10 μg/mL, 24 hours, cell supernatant (FIG. 16A)
Description: as §1, §2, §3, §4, §5

[3] = tested on: IL-10 production by RAW 264.7 cells; experiment: Cytokine secretion (IL-10) by immune cells on micropillar/microwell chip, 32-plex mouse cytokine array; assay type: cell-based; details: glycopolymers at 1250 μg/mL, LPS at 10 μg/mL, 24 hours, cell supernatant (FIG. 16D)
Description: as §1, §2, §3, §4, §5

[4] = tested on: CD40 on RAW 264.7 cells; experiment: Surface biomarker expression (CD40) in immune cells on micropillar/microwell chip; assay type: cell-based, mouse; details: 3D alginate/Matrigel, glycopolymers at 1250 μg/mL, LPS at 10 μg/mL, 48 hours, vs growth medium control (FIG. 15A)
Description: (§6) FIGS. 8, 14, and 15 are discussed in Example 5.
(§7) The micropillars of a 384-pillar micropillar chip were coated with 0.01% PMA-OD. Then 16.6 mM BaCl2/0.0033% PLL were printed onto the micropillars using a […].
(§8) An immune-cell suspension was prepared using 0.75% alginate and 0.5 mg/mL Matrigel and then printed onto the coated micropillars.
(§9) Growth media was then printed into the microwells on a microwell chip using a […].
(§10) The micropillar chip was then sandwiched with the microwell chip for 30 minutes and incubated for 24 hours with fresh growth media.
(§11) Next, various glycopolymers at 1250 μg/mL (polyacrylamide, N-glucosyl polymer, N-mannosyl polymer, N-lactosyl polymer, N-α2,3-sialolactosyl polymer, and N-α2,6-sialolactosyl polymer) and LPS at 10 μg/mL [701] were printed into the microwells.
(§12) The micropillar chip was then sandwiched with the microwell plate containing glycopolymers and LPS [701] for 48 hours. The micropillar chip was then rinsed with TBS [801] for 10 minutes, then incubated with ice-cold methanol and acetone (1:1 ratio) for 10 minutes at room temperature. The micropillar chip was then rinsed with TBS twice for 5 minutes and incubated with blocking buffer (SuperBlock) for 1 hour at room temperature. […]

[5] = tested on: CD80 on RAW 264.7 cells; experiment: Surface biomarker expression (CD80) in immune cells on micropillar/microwell chip; assay type: cell-based, mouse; details: 3D alginate/Matrigel, glycopolymers at 1250 μg/mL, LPS at 10 μg/mL, 48 hours, vs growth medium control (FIG. 15B)
Description: as §6, §7, §8, §9, §10, §11, §12

[6] = tested on: Class II MHC on RAW 264.7 cells; experiment: Surface biomarker expression (class II MHC) in immune cells on micropillar/microwell chip; assay type: cell-based, mouse; details: 3D alginate/Matrigel, glycopolymers at 1250 μg/mL, LPS at 10 μg/mL, 48 hours, vs growth medium control (FIG. 15D)
Description: as §6, §7, §8, §9, §10, §11, §12

## lipopolysaccharide [LPS]
[1]
  IL-6 production: significantly stimulated
[2]
  TNF-α production: significantly stimulated
[3]
  IL-10 production: significantly stimulated
[4]
  expression level of CD40 marker: significantly enhanced
[5]
  expression level of CD80 marker: enhanced
[6]
  expression level of class II MHC marker: significantly enhanced
